Assay [1] concerns Human monocytic cell line THP-1. The assay can be described thus: Intracellular NAD by enzymatic assay in THP-1 cells. The assay is classed as cell-based.
Assay [2] has the same test system. The assay can be described thus: LPS-stimulated cytokine secretion by ELISA in THP-1 cells. The assay is classed as cell-based. The procedure:
Human monocytic cell line THP-1 was cultured overnight in the presence of graded doses of nicotinic acid (NA), a precursor of NAD, and then stimulated with lipopolysaccharide (LPS) from gram-negative bacteria for 2 h. The cell supernatant was tested for tumor necrosis factor (TNF) content by ELISA and the intracellular pool of NAD was measured by an enzymatic assay.
Human monocytic cell line THP-1, human peripheral blood mononuclear cells (PBMC), human monocyte-derived dendritic cells, or mouse peritoneal macrophages were isolated and cultured overnight with increasing doses of FK866, and then stimulated with LPS for 6 h. The culture supernatants were tested for TNF and IL-6 content by ELISA
THP-1 cells were incubated in the presence of 10 nM FK866 and graded doses of NMN. Cells were further stimulated with LPS and intracellular NAD levels and TNFα secretion were determined using standard assays.
This example illustrates the direct relationship between NAD levels in cells and pro-inflammatory cytokine secretion. Human monocytic cell line THP-1 was cultured overnight in the presence of nicotinic acid, a precursor of NAD, and then stimulated with lipopolysaccharide (LPS) from gram-negative bacteria for 2 h. The cell supernatant was tested for tumor necrosis factor (TNF) content by ELISA and the intracellular pool of NAD was measured by an enzymatic assay.
This example describes the inhibition of pro-inflammatory cytokines production by the competitive small molecular weight compound inhibitor of NMPRT, ((E)-N-[4-(1-benzoylpiperidin-4-yl)butyl]-3-(pyridin-3-yl)acrylamide, designated FK866). Human monocytic cell line THP-1, human peripheral blood mononuclear cells (PBMC), human monocyte-derived dendritic cells, or mouse peritoneal macrophages were isolated and cultured overnight with increasing doses of FK866, and then stimulated with LPS for 6 h. The culture supernatants were tested for TNF and IL-6 content by ELISA.
This example illustrates that NAMPT is the only molecular target of FK866. […]
Background: ELISA stands for enzyme-linked immunosorbent assay.

Assay [3] has as its system RAW264.7 cell line. The experiment in a line: LPS-stimulated TNF secretion by ELISA in RAW264.7 cells. Type of assay: cell-based, mouse. The settings on record: RAW264.7 cultured overnight with FK866 plus the added substance, LPS 2 h. The procedure:
The murine RAW264.7 cell line was stimulated with LPS in the presence of FK866. TNF protein concentrations were determined by ELISA (above panel) while mRNA levels were determined by RT-PCR (below panel).
(§1) (A) The mouse macrophage cell line RAW264.7 was cultured overnight with increasing doses of FK866, and then stimulated with LPS for 2 h. The culture supernatants were tested for TNF content by ELISA and intracellular NAD levels were measured by an enzymatic assay.
(§2) (B) RAW264.7 cells were cultured overnight in the presence of FK866 and the intracellular pool of NAD was restored by co-incubation of the cells with nicotinic acid (NA). Cells were then stimulated with LPS for 2 h and the culture supernatant was tested for TNF content by ELISA.
(§3) (C) RAW264.7 cells were cultured overnight in the presence of FK866 and NAD levels were maintained by culturing the cells in the presence of extracellular NAD. Cells were then stimulated with LPS for 2 h and the culture supernatant was tested for TNF content by ELISA.
This example illustrates that FK866 inhibits TNFα secretion at a posttranscriptional level. The murine RAW 264.7 cell line was incubated in the presence of graded doses of FK866, stimulated with microbial products, and levels of TNFα released in the supernatant evaluated by ELISA.
(§4) This example illustrates the correlation between proinflammatory cytokine secretion and NAD levels in the cell. The mouse macrophage cell line RAW264.7 was cultured overnight with increasing doses of FK866, and then stimulated with LPS for 2 h. The culture supernatants were tested for TNF content by ELISA and intracellular NAD levels were measured by an enzymatic assay.
(§5) In another experiment, RAW264.7 cells were cultured overnight in the presence of FK866 and the intracellular pool of NAD was restored by co-incubation of the cells with nicotinic acid. Nicotinic acid is a precursor of NAD, but its transformation into NAD is not dependent upon NMPRT and is thus not inhibited by FK866. Cells were then stimulated with LPS for 2 h and the culture supernatant was tested for TNF content by ELISA.
(§6) In another experiment, RAW264.7 cells were cultured overnight in the presence of FK866 and NAD levels were maintained by culturing the cells in the presence: of extra-cellular NAD. Cells were then stimulated with LPS for 2 h and the culture supernatant was tested for TNF content by ELISA.

The test system of assay [4] is RAW264.7 cell line. The experiment in a line: Intracellular NAD by enzymatic assay in RAW264.7 cells. The assay is classed as cell-based, mouse. The settings on record: RAW264.7 cultured overnight with FK866 plus the added substance, LPS 2 h. As to the method:
as §1, §2, §3, §4, §5, §6

The subject of assay [5] is collagen-induced arthritis. The assay can be described thus: Collagen-induced arthritis (CIA) mouse model. The assay is classed as in vivo. The settings on record: FK866 10 mg/kg ip twice daily or etanercept 15 mg/kg every three days, over 15 days.
Setting [6] is: THP-1, 10 nM FK866 and graded doses of NMN, LPS.

With `O=C(O)c1cccnc1` [nicotinic acid], in assay [1] (THP-1 cultured overnight with graded doses of nicotinic acid, LPS 2 h), the “intracellular NAD levels” value is reported as “increased in parallel in a dose-dependent fashion”. Besides, the TNF secretion result in assay [2] (THP-1 cultured overnight with graded doses of nicotinic acid, LPS 2 h, ELISA) is “increased in parallel in a dose-dependent fashion”. For the same compound, the “TNF synthesis in the presence of FK866” value in the assay with RAW264.7 cell line [3] was “restored”. In addition, in the assay with RAW264.7 cell line [4], the “NAD levels in the presence of FK866” value is “maintained high levels of NAD”.
With `NC(=O)c1ccc[n+]([C@@H]2O[C@H](COP(=O)([O-])O)[C@@H](O)[C@H]2O)c1` [nicotinamide mononucleotide (NMN), nicotinamide mononucleotide], the “intracellular NAD levels despite exposure to FK866” value in assay [1] (setting [6]) was “restored”. In addition, the “TNFα production despite exposure to FK866” value in assay [2] (setting [6]) was “restored”.
In the case of `NC(=O)c1ccc[n+]([C@@H]2O[C@H](COP(=O)([O-])OP(=O)(O)OC[C@H]3O[C@@H](n4cnc5c(N)ncnc54)[C@H](O)[C@@H]3O)[C@@H](O)[C@H]2O)c1` [NAD, nicotinamide adenyl dinucleotide], the “TNF synthesis in the presence of FK866” value in the assay with RAW264.7 cell line [3] is recorded as “restored”. Further, in the assay on RAW264.7 cell line [4], the “NAD levels in the presence of FK866” value is “remained high”.
For etanercept, the “severity of arthritis in CIA mice” value in assay [5] was “P<0.05 FK866 or etanercept versus placebo”.

The values are drawn from US20090325923A1, “NEW METHOD FOR THE TREATMENT OF INFLAMMATORY DISEASES” (TOPOTARGET SWITZERLAND SA, priority 2006, published 2009).
